Measurements reported in US12264173B2 (GILEAD SCIENCES, INC., priority 2020, dated 2025).

Assays:
POLRMT [1] = target: T1, POLRMT (Homo sapiens, UniProt O00411); assay: Single nucleotide incorporation by human mitochondrial RNA polymerase (POLRMT); assay type: biochemical; conditions: nucleotide triphosphate
Procedure: A mixture of MTCN buffer (50 mM MES, 25 mM Tris-HCl, 25 mM CAPS, and 50 mM NaCl, pH 7.5), 200 nM 5′^32 P-R12/D18, 10 mM MgCl2, 1 mM DTT, and 376 nM POLRMT was preincubated at 30° C. for 1 min. The reaction was started by addition of 500 μM (final) natural NTP or NTP analogs. At selected time points, the reaction mixture was removed and quenched with gel loading buffer containing 100 mM EDTA, 80% formamide, and bromophenol blue, and heated at 65° C. for 5 min. The samples were run on a 20% polyacrylamide gel (8 M urea), and the product formation was quantified using Typhoon Trio Imager and Image Quant TL Software (GE Healthcare, Piscataway, NJ). The rate of single nucleotide incorporation by mt RNA pol was calculated by fitting the product formation using the single exponential equation: [1R13]=A(1−e^−kt), where [1R13] represents the amount (in nM) of the elongated product formed, t represents the reaction time, k represents the observed rate, and A represents the amplitude of the exponential.

DENV2 NS5 = DENV2 NS5 (Dengue virus type 2, UniProt P14340); assay: DENV Pol IC50 (DENV2-NS5 polymerase assay); assay type: biochemical; conditions: nucleotide triphosphate
Procedure: A 244 nucleotide secondary structureless heteropolymeric RNA (sshRNA) with sequence 5′-(UCAG)20(UCCAAG)14(UCAG)20-3′ (SEQ ID NO: 1) is used as the template with 5′-CUG-3′ primer in the DENV2-NS5 polymerase assay. Six two-fold dilutions of compounds starting from 200 nM and no inhibitor control are plated in 96-well plates. 100 nM DENV2 NS5 is preincubated for 5 minutes at room temperature in a reaction mixture containing 40 mM Tris-HCl (pH 7.5), 10 mM NaCl, 3 mM DTT, 0.2 unit/μL RNasin Plus RNase Inhibitor, 200 ng/μL sshRNA, 20 μM CUG and 2 mM MgCl2. Enzyme mix is added to compound dilutions and reactions initiated by the addition of a mixture containing 20 μM of three natural NTP plus 2 μM of analog:base matched competing natural NTP containing 1:100 α-33P-NTP. After 90 minutes at 30° C., 5 μL of the reaction mixtures are spotted on DE81 anion exchange paper. Filter papers are washed three times with Na2HPO4 (125 mM, pH 9) for 5 minutes, rinsed with water and ethanol, then air-dried and exposed to phosphorimager. Synthesized RNA is quantified using Typhoon Trio Imager and Image Quant TL Software and reaction rates are calculated by linear regression using GraphPad Prism 5.0. IC50 values are calculated in Prism by non-linear regression analysis using the dose-response (variable slope) equation (four-parameter logistic equation): Y=Bottom+(Top-Bottom)/(1+10^((Log IC50−X)*HillSlope)).

RSV RNP complexes = target: T2, RSV RNP complexes (Human respiratory syncytial virus A, UniProt P28887); assay: RSV RNP assay (transcription); assay type: biochemical, RSV A2
T2 construct: The supernatant (S3) fraction, containing the enriched RSV RNP complexes, was collected; endogenous in cells; host or cells: HEp-2 cells infected with RSV A2; detergent-extracted S3 fraction
T2 sequence (P03421 whole entry): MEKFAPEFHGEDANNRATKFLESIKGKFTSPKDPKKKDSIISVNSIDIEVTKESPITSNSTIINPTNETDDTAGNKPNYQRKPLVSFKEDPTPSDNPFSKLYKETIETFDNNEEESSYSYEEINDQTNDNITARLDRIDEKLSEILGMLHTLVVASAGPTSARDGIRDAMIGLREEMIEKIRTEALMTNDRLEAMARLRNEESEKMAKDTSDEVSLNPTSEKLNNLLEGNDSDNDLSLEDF
T2 sequence (P28887 whole entry): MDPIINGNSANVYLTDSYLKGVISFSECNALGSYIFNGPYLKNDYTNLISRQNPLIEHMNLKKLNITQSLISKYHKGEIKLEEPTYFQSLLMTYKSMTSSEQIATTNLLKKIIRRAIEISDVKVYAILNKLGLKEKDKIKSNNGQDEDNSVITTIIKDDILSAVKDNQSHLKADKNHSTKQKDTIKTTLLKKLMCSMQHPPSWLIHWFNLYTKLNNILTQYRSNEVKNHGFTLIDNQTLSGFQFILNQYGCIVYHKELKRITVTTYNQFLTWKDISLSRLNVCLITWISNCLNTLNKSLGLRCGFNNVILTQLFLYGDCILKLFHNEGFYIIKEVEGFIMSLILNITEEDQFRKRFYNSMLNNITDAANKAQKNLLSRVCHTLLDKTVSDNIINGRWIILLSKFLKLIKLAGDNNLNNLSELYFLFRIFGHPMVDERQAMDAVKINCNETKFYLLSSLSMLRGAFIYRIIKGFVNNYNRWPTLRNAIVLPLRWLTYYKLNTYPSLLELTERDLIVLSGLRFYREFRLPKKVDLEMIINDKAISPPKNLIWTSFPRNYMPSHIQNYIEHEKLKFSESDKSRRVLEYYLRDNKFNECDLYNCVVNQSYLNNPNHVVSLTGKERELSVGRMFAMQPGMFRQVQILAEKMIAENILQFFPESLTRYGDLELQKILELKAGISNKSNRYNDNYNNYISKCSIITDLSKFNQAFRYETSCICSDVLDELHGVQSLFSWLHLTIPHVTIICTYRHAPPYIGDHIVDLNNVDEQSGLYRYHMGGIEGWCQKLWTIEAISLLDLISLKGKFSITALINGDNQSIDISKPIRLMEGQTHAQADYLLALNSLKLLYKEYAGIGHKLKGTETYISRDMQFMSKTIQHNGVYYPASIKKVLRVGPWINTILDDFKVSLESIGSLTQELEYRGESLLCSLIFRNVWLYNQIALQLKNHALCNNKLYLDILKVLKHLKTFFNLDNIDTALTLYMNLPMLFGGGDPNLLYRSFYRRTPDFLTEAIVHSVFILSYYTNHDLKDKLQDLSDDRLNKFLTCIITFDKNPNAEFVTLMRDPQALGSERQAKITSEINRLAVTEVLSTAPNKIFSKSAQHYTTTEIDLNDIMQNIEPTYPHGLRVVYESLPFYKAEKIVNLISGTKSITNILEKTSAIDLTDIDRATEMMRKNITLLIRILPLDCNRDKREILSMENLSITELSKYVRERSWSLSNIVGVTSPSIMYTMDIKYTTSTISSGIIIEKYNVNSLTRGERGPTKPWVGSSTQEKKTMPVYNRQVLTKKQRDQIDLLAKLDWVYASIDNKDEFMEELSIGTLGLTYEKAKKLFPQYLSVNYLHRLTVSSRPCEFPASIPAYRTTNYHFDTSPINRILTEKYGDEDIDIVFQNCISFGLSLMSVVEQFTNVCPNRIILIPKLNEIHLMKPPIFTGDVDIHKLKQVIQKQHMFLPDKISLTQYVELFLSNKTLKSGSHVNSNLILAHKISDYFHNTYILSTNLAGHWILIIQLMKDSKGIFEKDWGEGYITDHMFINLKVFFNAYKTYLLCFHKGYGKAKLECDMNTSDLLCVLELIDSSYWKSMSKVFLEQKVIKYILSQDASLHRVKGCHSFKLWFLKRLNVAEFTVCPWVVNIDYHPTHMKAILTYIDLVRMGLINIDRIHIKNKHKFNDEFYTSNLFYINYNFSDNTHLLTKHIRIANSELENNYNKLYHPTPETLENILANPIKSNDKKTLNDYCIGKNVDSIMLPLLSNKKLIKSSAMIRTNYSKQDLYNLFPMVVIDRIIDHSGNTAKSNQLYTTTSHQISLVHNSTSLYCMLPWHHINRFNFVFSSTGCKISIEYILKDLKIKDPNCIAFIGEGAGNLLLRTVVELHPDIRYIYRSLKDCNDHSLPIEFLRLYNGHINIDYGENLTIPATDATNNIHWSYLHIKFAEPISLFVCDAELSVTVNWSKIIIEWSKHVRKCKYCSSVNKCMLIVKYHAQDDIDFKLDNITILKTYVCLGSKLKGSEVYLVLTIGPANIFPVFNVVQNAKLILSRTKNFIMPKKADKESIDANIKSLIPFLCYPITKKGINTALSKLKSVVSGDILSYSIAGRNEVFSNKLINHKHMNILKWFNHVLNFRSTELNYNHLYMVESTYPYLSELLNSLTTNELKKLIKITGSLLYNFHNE
Procedure: RSV ribonucleoprotein (RNP) complexes were prepared from a method modified from Mason et al. (1). HEp-2 cells were plated at a density of 7.1×10^4 cells/cm^2 in MEM+10% fetal bovine serum (FBS) and allowed to attach overnight at 37° C. (5% CO2). Following attachment, the cells were infected with RSV A2 (MOI=5) in 35 mL MEM+2% FBS. At 20 hours post-infection, the media was replaced with MEM+2% FBS supplemented with 2 μg/mL actinomycin D and returned to 37° C. for one hour. The cells were then washed once with PBS and treated with 35 mL of PBS+250 μg/mL lyso-lecithin for one minute, after which all liquid was aspirated. […] The supernatant (S3) fraction, containing the enriched RSV RNP complexes, was collected and the protein concentration determined by UV absorbance at 280 nm. […]
Transcription reactions contained 25 μg of crude RSV RNP complexes in 30 μL of reaction buffer [50 mM TRIS-acetate (pH 8.0), 120 mM potassium acetate, 5% glycerol, 4.5 mM MgCl2, 3 mM DTT, 2 mM ethyleneglycol-bis(2-aminoethylether)-tetraacetic acid (EGTA), 50 μg/mL BSA, 2.5 U RNasin (Promega), ATP, GTP, UTP, CTP and 1.5 uCi [α-32P] […] The radiolabled nucleotide used in the transcription assay was selected to match the nucleotide analog being evaluated for inhibition of RSV RNP transcription. […]

POLRMT [2] = target: T1, POLRMT; assay: Inhibition of human mitochondrial RNA polymerase (POLRMT); assay type: biochemical; conditions: nucleotide triphosphate
Procedure: All reaction mixtures contained 50 mM Tris-HCl buffer (pH 8.0), 0.2 mg/ml BSA, 2 mM DTT, 0.05 mg/ml activated fish sperm DNA, 10 mM MgCl2, 1.3 μCi [α-^33P]dTTP (3,000 Ci/mmol), and 2 μMeach of dATP, dGTP, and TTP. The optimal enzyme concentrations were chosen to be in the linear range of enzyme concentration ([E]) versus activity, and the reaction time was selected to ensure that 10% of the substrate was consumed. All reactions were run at 37° C. […] The reactions were heated to 32° C. and initiated by adding 2.5 μM each of the four natural NTPs and 1.5 μCi of [^33P]GTP. After incubation for 30 min at 32° C., the reactions were spotted on DE81 paper before being processed for quantification.

T1 sequence (O00411 42-1230): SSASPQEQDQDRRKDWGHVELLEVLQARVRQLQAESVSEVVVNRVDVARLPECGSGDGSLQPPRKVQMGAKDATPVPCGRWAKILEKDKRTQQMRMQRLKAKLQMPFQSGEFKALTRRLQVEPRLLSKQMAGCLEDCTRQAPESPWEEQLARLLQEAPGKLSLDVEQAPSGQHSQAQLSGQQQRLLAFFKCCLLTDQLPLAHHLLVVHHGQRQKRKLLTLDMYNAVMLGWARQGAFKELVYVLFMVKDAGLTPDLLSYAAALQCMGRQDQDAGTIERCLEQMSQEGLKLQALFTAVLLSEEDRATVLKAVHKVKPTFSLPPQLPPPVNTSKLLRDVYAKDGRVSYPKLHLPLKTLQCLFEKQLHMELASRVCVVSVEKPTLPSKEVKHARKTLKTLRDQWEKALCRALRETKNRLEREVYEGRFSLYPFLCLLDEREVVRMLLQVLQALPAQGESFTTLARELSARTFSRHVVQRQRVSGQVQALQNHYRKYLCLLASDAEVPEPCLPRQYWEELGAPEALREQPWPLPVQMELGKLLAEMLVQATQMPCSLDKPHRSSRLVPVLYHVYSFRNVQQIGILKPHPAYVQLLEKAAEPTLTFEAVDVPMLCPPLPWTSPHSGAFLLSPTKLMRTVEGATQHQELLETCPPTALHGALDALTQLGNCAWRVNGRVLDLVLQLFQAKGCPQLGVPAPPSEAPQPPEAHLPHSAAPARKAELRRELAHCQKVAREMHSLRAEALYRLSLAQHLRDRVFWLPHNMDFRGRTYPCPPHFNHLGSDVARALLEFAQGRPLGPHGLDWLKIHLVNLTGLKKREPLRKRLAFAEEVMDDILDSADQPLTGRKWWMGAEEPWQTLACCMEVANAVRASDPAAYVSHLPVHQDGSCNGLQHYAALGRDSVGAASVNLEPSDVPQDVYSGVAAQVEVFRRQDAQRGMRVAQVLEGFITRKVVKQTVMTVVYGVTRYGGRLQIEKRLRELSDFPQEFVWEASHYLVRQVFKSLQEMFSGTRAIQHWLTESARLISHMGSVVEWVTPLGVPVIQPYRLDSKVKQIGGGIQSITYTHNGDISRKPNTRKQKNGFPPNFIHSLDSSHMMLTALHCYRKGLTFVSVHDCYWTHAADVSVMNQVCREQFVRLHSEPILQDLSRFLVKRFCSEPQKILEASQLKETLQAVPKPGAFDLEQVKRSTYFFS

Structure (SMILES)	POLRMT SNI % (POLRMT [1]) [%]	IC50 (DENV2 NS5) [nM]	IC50 (RSV RNP complexes) [nM]	IC50 (POLRMT [2]) [nM]
Nc1ncnn2c([C@@H]3O[C@](CCl)(COP(=O)(O)OP(=O)(O)OP(=O)(O)O)[C@@H](O)[C@H]3O)ccc12 [—CH2Cl]	0.11	7100	1100	
N#C[C@]1(COP(=O)(O)OP(=O)(O)OP(=O)(O)O)O[C@@H](c2ccc3c(N)ncnn23)[C@H](O)[C@@H]1O [—CN]	0.6	830	44	> 200000
[N-]=[N+]=N[C@]1(COP(=O)(O)OP(=O)(O)OP(=O)(O)O)O[C@@H](c2ccc3c(N)ncnn23)[C@H](O)[C@@H]1O [—N3]	132	140		900
